What follows are compounds tested against C_A84I-SQR (SDHC_A84I), IPO323_Flu21 mitochondria (Zymoseptoria tritici, UniProt F9X9V6+F9XH52+O42772, A84I) (assay: Succinate-quinone (SQR) SDHI sensitivity assay on purified mitochondria, IPO323_Flu21). Details: mitochondria of UV mutant IPO323_Flu21; mean of three ± SD.
Type: biochemical
Description: Succinate-ubiquinone oxidoreductase (SQR) inhibition assays were performed on mitochondrial extracts from a panel of strains that were (i) either carrying a unique C-subunit encoding gene (ZtSDHC1, ZtSDHC1_A84I or Zt-SDHC3), or (ii) carrying two C-subunit encoding genes ZtSDHC1 and ZtSDHC3 (Table 1).
Biomass production, mitochondrial extraction and purification were performed as described in [14]. Succinate: ubiquinone/DCPIP sensitivity tests were performed as described in [14] with minor modification. The different mitochondrial suspensions were adjusted to similar initial velocity (1 OD595nm hour^-1) and inhibitor concentrations ranged between 0.047nM and 50μM with uniform 4x dilution steps (11 concentrations + DMSO control). Calculated absorbance slopes (OD/min) were used for IC50 calculations using GraphPad Prism 6.07 software non-linear curve fitting against log inhibitor concentrations.
In the case of `O=C(NCCc1ncc(C(F)(F)F)cc1Cl)c1ccccc1C(F)(F)F` [Fluopyram], the IC50 is reported as 1.44 ± 0.354 µM. Work on `C[C@@H](Cc1ccc(Cl)cc1Cl)NC(=O)c1cn(C)nc1C(F)F` [Compound 2] yielded an IC50 of 0.78 ± 0.157 µM. In the case of `Cc1cc(OC(C)C)ccc1C(=O)C(C)(C)NC(=O)c1sccc1C` [Isofetamid], the IC50 is reported as 21.4 ± 4.55 µM. Compound `CON(C(=O)c1cn(C)nc1C(F)F)[C@@H](C)Cc1c(Cl)cc(Cl)cc1Cl` [Pydiflumetofen] has an IC50 of 0.002 ± 0.0004 µM. For `CON(C(=O)c1cn(C)nc1C(F)F)[C@@H](C)Cc1ccc(Cl)cc1Cl` [Compound 3], the IC50 was 0.028 ± 0.0073 µM. For `O=C(Nc1ccccc1-c1ccc(Cl)cc1)c1cccnc1Cl` [Boscalid], the IC50 was 0.062 ± 0.0192 µM. For `Cn1cc(C(=O)NCCc2ccc(Cl)cc2Cl)c(C(F)F)n1` [Compound 1], the IC50 was 2.57 ± 0.239 µM. `CC1=C(C(=O)Nc2ccccc2)SCCO1` [Carboxin] showed an IC50 of 1.15 ± 0.153 µM. Work on `CC(C)CC(C)c1sccc1NC(=O)c1cn(C)nc1C(F)(F)F` (stereo not drawn) [Penthiopyrad] yielded an IC50 of 0.0046 ± 0.0017 µM.

Reference: article PMC6941823, “A dispensable paralog of succinate dehydrogenase subunit C mediates standing resistance towards a subclass of SDHI fungicides in Zymoseptoria tritici” (PLoS Pathogens, 2019)
